In patent US8735412B2, “Sulfoximine-substituted anilinopyrimidine derivatives as CDK inhibitors, the production thereof, and use as medicine” (Bayer Intellectual Property GmbH, priority 2008, dated 2014):
Read-outs that look alike come from different tables or passages of the source. Blank lines part the entries; values can stand above or below the compound they belong to.

How the values were obtained:
[1] = tested on: HeLa-MaTu human cervical carcinoma xenograft; assay: HeLa-MaTu cervical tumor xenograft model on NMRI nude mice; format: in vivo; conditions: oral
Method: HeLa-MaTu (EPO-GmbH, Berlin) human cervical carcinoma cells, which were grown in cell culture, were implanted subcutaneously in the flank of female NMRI nude mice. […] The study was terminated as soon as the tumors in one of the groups reached a size of approx. 150 mm^2.
(§1) The growth-inhibiting effect of the compounds was tested in the HeLa-MaTu cervical tumor model as xenograft on NMRI nude mice. […] Treatment of the established tumors was begun on day 4 after inoculation of the tumors.
as §1, §1
(§2) The study was designed for determining the initial response of a human cervical carcinoma xenograft model to treatments with the 5-Br comparative substance V12. The growth-inhibiting effect of the compounds was tested in the HeLa-MaTu cervical tumor model as xenograft on NMRI nude mice. V12 was dissolved completely in the solubilizer 40% polyethylene glycol 400 (PEG 400)/60% water to a final concentration of 0.7 mg/ml (group 2), 0.85 mg/ml (group 3), or 1.0 mg/ml (group 4). Treatment of the established tumors was begun on day 4 after inoculation of the tumors.
HeLa-MaTu (EPO-GmbH, Berlin) human cervical carcinoma cells, which were grown in cell culture, were implanted subcutaneously in the flank of female NMRI nude mice. […] The study was terminated as soon as the tumors in one of the groups reached a size of approx. 160 mm^2.
(§3) The growth-inhibiting effect of the compounds was tested in the HeLa-MaTu cervical tumor model as xenograft on NMRI nude mice. […] Treatment of the established tumors was begun on day 5 after inoculation of the tumors.
as §3, §3
The following test groups were used: • Group 1: Control, treatment with solubilizer (40% PEG 400/60% water) • Group 2: Compound according to WO 2005/037800 prepared according to preparation V14 disclosed above • (6 mg/kg, oral, 2x daily on day 5, 6, 12, 13, 19, 20) • Group 3: Compound according to WO 2005/037800 prepared according to preparation V14 disclosed above • (8 mg/kg, oral, 2× daily on day 5, 6, 12, 13, 19, 20) • Group 4: Compound according to WO 2005/037800 prepared according to preparation V14 disclosed above • (10 mg/kg, oral, 2× daily on day 5, 6, 12, 13, 19, 20)
as §2, with “substance V14.” for “substance V12.”, “mice. V14” for “mice. V12”, “of 0.6” for “of 0.7”, “2), 0.8” for “2), 0.85”, “day 5” for “day 4”

[2] = tested on: HeLa-MaTu cervical carcinoma cells; assay: Proliferation assay (Assay 4), crystal violet staining; format: cell-based; conditions: Homo sapiens, 96 h, 4 days incubation; read-out: HeLa-MaTu (Assay 4) Concentration for 50% inhibition of cellular proliferation, IC50
Method: 10.4 Assay 4: Proliferation Assay
Cultivated human HeLa-MaTu cervical carcinoma cells (obtained from EPO-GmbH, Berlin) were plated at a density of 3000 cells/measuring point in a 96-well multititer is plate in 200 μl of growth medium (DMEM/HAMS F12, 2 mM L-glutamine, 10% fetal calf serum). After 24 hours the cells of one plate (zero-point plate) were stained with crystal violet (see below), whereas the medium of the other plates was replaced with fresh culture medium (200 μl), to which the test substances had been added at various concentrations (0 μM, and in the range 0.01-30 μM; the final concentration of the solvent dimethylsulfoxide was 0.5%). The cells were incubated for 4 days in the presence of the test substances. Cellular proliferation was determined by staining the cells with crystal violet: the cells were fixed by adding 20 μl/measuring point of an 11% glutaraldehyde solution for 15 min at room temperature. After washing the fixed cells with water three times, the plates were dried at room temperature. The cells were stained by adding 100 μl/measuring point of a 0.1% crystal violet solution (pH adjusted to pH3 by adding acetic acid). After washing the stained cells with water three times, the plates were dried at room temperature. The dye was dissolved by adding 100 μl/measuring point of a 10% acetic acid solution. The extinction was determined photometrically at a wavelength of 595 nm. The percentage change in cell growth was calculated by standardization of the measured values to the extinction values of the zero-point plate (=0%) and the extinction of the untreated (0 μM) cells (=100%). The measured data were standardized to 0% inhibition (cell proliferation without inhibitor) and 100% inhibition (zero-point plate). The IC50 values were determined by means of a 4-parameter fit using the company's own software.

[3] = target: T1, CDK2/CycE (Homo sapiens, UniProt P24941); assay: CDK2/CycE kinase assay (Assay 2); format: biochemical; conditions: 0.5 μM ATP, histon IIIS substrate; read-out: CDK2/CycE (Assay 2) Concentration for 50% inhibition of enzyme activity, IC50
T1 construct: purchased ProQinase GmbH, Freiburg; host or cells: baculovirus-infected insect cells (Sf9)
Method: 10.2 Assay 2: CDK2/CycE Kinase Assay
(§4) Recombinant CDK2 and CycE-GST fusion proteins, purified from baculovirus-infected insect cells (Sf9), were purchased from ProQinase GmbH, Freiburg. Histon IIIS, used as kinase substrate, was purchased from the company Sigma. CDK2/CycE (50 ng/measuring point) was incubated for 10 min at 22° C. in the presence of various concentrations of test substances (0 μM, and within the range 0.01-100 μM) in assay buffer [50 mM Tris/HCl pH8.0, 10 mM MgCl2, 0.1 mM Na ortho-vanadate, 1.0 mM dithiothreitol, 0.5 μM adenosine triphosphate (ATP), 10 μg/measuring point histon IIIS, 0.2 μCi/measuring point ^33P-gamma ATP, 0.05% NP40, 1.25% dimethylsulfoxide]. The reaction was stopped by adding EDTA solution (250 mM, pH8.0, 15 μl/measuring point).
(§5) From each reaction mixture, 15 μl was applied to P30 filter strips (from Wallac), and unincorporated ^33P-ATP was removed by washing the filter strips three times, for 10 min each time, in 0.5% phosphoric acid. After drying the filter strips for 1 hour at 70° C., the filter strips were covered with scintillator strips (MeltiLex™ A, from Wallac) and stoved for 1 hour at 90° C. The amount of incorporated ^33P (substrate phosphorylation) was determined by scintillation measurement in a gamma-radiation measuring instrument (Wallac). The measured data were standardized to 0% inhibition (enzyme reaction without inhibitor) and 100% inhibition (all assay components except enzyme). The IC50 values were determined by means of a 4-parameter fit using the company's own software.

[4] = target: T2, CDK1/CycB (Homo sapiens, UniProt P06493); assay: CDK1/CycB kinase assay (Assay 1); format: biochemical; conditions: 0.5 μM ATP, histon IIIS substrate; read-out: CDK1/CycB (Assay 1) Concentration for 50% inhibition of enzyme activity, IC50
T2 construct: purchased ProQinase GmbH, Freiburg; host or cells: baculovirus-infected insect cells (Sf9)
T2 sequence (P06493 whole entry): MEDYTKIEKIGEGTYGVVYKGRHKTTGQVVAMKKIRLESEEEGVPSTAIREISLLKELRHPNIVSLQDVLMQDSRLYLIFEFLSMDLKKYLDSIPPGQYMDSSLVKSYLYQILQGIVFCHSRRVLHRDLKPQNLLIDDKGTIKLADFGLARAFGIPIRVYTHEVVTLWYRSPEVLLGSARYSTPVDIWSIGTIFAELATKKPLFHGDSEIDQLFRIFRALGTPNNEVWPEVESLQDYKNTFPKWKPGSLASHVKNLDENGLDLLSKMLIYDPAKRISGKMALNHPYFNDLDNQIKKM
T2 sequence (P14635 whole entry partner): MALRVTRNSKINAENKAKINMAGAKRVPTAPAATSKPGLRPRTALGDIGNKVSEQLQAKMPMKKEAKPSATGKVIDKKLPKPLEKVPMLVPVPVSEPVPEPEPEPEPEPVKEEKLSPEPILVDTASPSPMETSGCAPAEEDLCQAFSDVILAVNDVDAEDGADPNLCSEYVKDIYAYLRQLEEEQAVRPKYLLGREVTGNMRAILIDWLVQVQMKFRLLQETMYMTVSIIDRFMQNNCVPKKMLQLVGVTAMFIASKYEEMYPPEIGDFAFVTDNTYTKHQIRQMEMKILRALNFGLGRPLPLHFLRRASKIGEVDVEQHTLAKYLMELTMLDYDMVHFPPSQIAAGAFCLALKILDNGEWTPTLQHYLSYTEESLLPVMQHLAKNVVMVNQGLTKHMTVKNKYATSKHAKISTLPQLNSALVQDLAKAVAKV
Method: 10.1 Assay 1: CDK1/CycB Kinase Assay
Recombinant CDK1 and CycB-GST fusion proteins, purified from baculovirus-infected insect cells (Sf9), were purchased from ProQinase GmbH, Freiburg. The histon IIIS used as kinase substrate is commercially available from the company Sigma.
as §4, with “CDK1/CycB (200” for “Recombinant CDK2 and CycE-GST fusion proteins, purified from baculovirus-infected insect cells (Sf9), were purchased from ProQinase GmbH, Freiburg. Histon IIIS, used as kinase substrate, was purchased from the company Sigma. CDK2/CycE (50”
as §5

[5] = 2.5 mg/kg (group 4), 2x daily on day 5, 6, 12, 13, 19, 20, day 20
[6] = 1.5, 2.0, 2.5 mg/kg, 2x daily on day 5, 6, 12, 13, 19, 20
[7] = Mus musculus, 480 h, 2.5 mg/kg (group 4), 2x daily on day 5, 6, 12, 13, 19, 20, day 20, read-out: treatment/control ratio T/C (tumor weight)

SMILES: C[C@@H](O)[C@@H](C)Oc1nc(Nc2ccc(S(=N)(=O)C3CC3)cc2)ncc1C(F)(F)F (mixture of isomers) [Example 1-SI-2, (RS)-S-Cyclopropyl-S-(4-{[4-{[(1R,2R)-2-hydroxy-1-methylpropyl]oxy}-5-(trifluoromethyl)pyrimidin-2-yl]amino}phenyl)sulfoximide]
reduction of tumor weight at the end of the study to % of the control group [1, 5]: 19%
effect on tumor growth (in words) [1, 6]: dose-dependent inhibition of tumor growth
response vs control in vivo at 2.5 mg/kg [1, 7]: 19%

SMILES: C[C@@H](O)[C@@H](C)Oc1nc(Nc2ccc(S(C)(=N)=O)cc2)ncc1C(F)(F)F (mixture of isomers) [Example 2-SI-2, (RS)-S-(4-{[4-{[(1R,2R)-2-Hydroxy-1-methylpropyl]oxy}-5-(trifluoromethyl)pyrimidin-2-yl]amino}phenyl)-S-methylsulfoximide]
IC50 [2]: 8 nM
reduction of tumor weight at the end of the study to % of the control group [1, 5]: 18%
effect on tumor growth (in words) [1, 6]: dose-dependent inhibition of tumor growth
response vs control in vivo at 2.5 mg/kg [1, 7]: 18%

SMILES: C[C@@H](Nc1nc(Nc2ccc(S(=N)(=O)C3CC3)cc2)ncc1C(F)(F)F)C(C)(C)O (mixture of isomers) [Example 5-SI-2, (RS)-S-Cyclopropyl-S-(4-{[4-{[(R)-2-hydroxy-1,2-dimethylpropyl]amino}-5-(trifluoromethyl)pyrimidin-2-yl]amino}phenyl)sulfoximide]
effect on tumor growth (in words) ([1]; 5 mg/kg, 2x daily on day 4, 5, 11, 12): greatly inhibited tumor growth
reduction of tumor weight at the end of the study to % of the control group ([1]; 5 mg/kg, 2x daily on day 4, 5, 11, 12, day 17): 7%
response vs control in vivo at 5 mg/kg ([1]; Mus musculus, 408 h, 5 mg/kg, 2x daily on day 4, 5, 11, 12, day 17, read-out: treatment/control ratio T/C (tumor weight)): 7%

SMILES: CCS(=N)(=O)c1ccc(Nc2ncc(C(F)(F)F)c(N[C@H](C)[C@@H](C)O)n2)cc1 (mixture of isomers) [Example 6-SI-1, (RS)-S-Ethyl-S-(4-{[4-{[(1R,2R)-2-hydroxy-1-methylpropyl]amino}-5-(trifluoromethyl)pyrimidin-2-yl]amino}phenyl)sulfoximide]
IC50 [2]: 16 nM

SMILES: CCS(=N)(=O)c1ccc(Nc2ncc(C(F)(F)F)c(N[C@H](C)[C@@H](C)O)n2)cc1 (mixture of isomers) [Example 6-SI-2, (RS)-S-Ethyl-S-(4-{[4-{[(1R,2R)-2-hydroxy-1-methylpropyl]amino}-5-(trifluoromethyl)pyrimidin-2-yl]amino}phenyl)sulfoximide]
reduction of tumor weight at the end of the study to % of the control group ([1]; 5 mg/kg (group 4), 2x daily on day 4, 5, 11, 12, 17, 18, day 20): 8%
effect on tumor growth (in words) ([1]; 3, 4, 5 mg/kg, 2x daily on day 4, 5, 11, 12, 17, 18): dose-dependent inhibition of tumor growth
response vs control in vivo at 5 mg/kg ([1]; Mus musculus, 480 h, 5 mg/kg (group 4), 2x daily on day 4, 5, 11, 12, 17, 18, day 20, read-out: treatment/control ratio T/C (tumor weight)): 8%

IC50 [3]: 5 nM
SMILES: C[C@@H](Nc1nc(Nc2ccc(S(C)(=N)=O)cc2)ncc1C(F)(F)F)C(C)(C)O (single isomer, unassigned) [Example 9-SI-1]

IC50 [3]: 3 nM
SMILES: C[C@@H](Nc1nc(Nc2ccc(S(C)(=N)=O)cc2)ncc1C(F)(F)F)C(C)(C)O (single isomer, unassigned) [Example 9-SI-2]

SMILES: C[C@@H](Nc1nc(Nc2ccc([S@](=N)(=O)C3CC3)cc2)ncc1Br)C(C)(C)O [Example V11, (R)-S-[4-({5-bromo-4-[(R)-(2-hydroxy-1,2-dimethylpropyl)amino]pyrimidin-2-yl}amino)phenyl]-S-cyclopropyl-sulfoximide]
IC50 [3]: 7 nM
IC50 [2]: 13 nM
tolerability of the cyclic treatment regimen ([1]; 8 mg/kg, 2x daily on 2 successive days followed by 5 treatment-free days): well-tolerated
effect on tumor growth (in words) ([1]; 8 mg/kg, 2x daily on day 4, 5, 11, 12): inhibited tumor growth
reduction of tumor weight at the end of the study to % of the control group ([1]; 8 mg/kg, 2x daily on day 4, 5, 11, 12, day 17): 39%
response vs control in vivo at 8 mg/kg ([1]; Mus musculus, 408 h, 8 mg/kg, 2x daily on day 4, 5, 11, 12, day 17, read-out: treatment/control ratio T/C (tumor weight)): 39%
IC50 [4]: 8 nM
